# From US20150157739A1, “Imidazo[2,1]thiazol-3-one derivatives” (Hoffmann-La Roche Inc., priority 2012, published 2015)
# Tests used:
# [1] = target: T1, aggregated recombinant human-microtubule associated protein Tau (Homo sapiens, UniProt P10636); assay: Thiazin-red R displacement fluorescence assay on aggregated Tau; type: binding; conditions: displacement of Thiazin-red R from aggregated Tau; compound 0.3 nM to 10000 nM; 30 min room temperature; Ex 531 nm/Em 595 nm
# T1 construct: Recombinant human-microtubule associated protein Tau purified from E. coli is aggregated at a concentration of 5 μM with Arachidonic Acid (100 μM) in Tris 10 mM pH8, 24 h at 37° C
# T1 sequence (P10636 whole entry): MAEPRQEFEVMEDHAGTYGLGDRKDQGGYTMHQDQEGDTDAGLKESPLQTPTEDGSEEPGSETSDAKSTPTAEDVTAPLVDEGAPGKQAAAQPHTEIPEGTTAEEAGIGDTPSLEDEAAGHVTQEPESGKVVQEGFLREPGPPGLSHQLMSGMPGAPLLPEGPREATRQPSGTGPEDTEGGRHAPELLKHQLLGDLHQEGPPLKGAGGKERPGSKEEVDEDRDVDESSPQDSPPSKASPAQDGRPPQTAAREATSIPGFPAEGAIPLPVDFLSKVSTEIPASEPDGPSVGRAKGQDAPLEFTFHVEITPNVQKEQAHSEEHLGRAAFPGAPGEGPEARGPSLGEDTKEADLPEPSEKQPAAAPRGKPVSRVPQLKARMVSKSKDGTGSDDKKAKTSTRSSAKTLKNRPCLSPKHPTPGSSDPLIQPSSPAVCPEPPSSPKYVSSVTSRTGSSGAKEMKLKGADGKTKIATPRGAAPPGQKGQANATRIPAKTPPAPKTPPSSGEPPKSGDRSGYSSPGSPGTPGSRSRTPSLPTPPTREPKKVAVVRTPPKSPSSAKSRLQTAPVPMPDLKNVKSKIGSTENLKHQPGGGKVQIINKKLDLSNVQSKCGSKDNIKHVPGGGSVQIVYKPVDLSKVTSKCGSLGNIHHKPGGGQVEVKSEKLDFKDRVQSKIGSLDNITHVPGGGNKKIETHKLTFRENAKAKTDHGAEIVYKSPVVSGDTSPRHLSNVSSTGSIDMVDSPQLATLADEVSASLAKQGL
# [2] = target: T2, aggregated synthetic Aβ40 (Homo sapiens, UniProt P05067); assay: Thiazin-red R displacement fluorescence assay on aggregated A-beta; type: binding; conditions: displacement of Thiazin-red R from aggregated Aβ40; compound 0.3 nM to 10000 nM; 30 min room temperature; Ex 531 nm/Em 595 nm
# T2 construct: Synthetic Aβ40 is aggregated at a concentration of 50 μM
# T2 sequence (P05067 672-711 limits assumed): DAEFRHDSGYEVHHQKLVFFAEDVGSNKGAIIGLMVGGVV
SMILES,IC50 [1] [nM],IC50 [2] [nM]
"COc1cc(/C=c2\sc3nc(-c4cc(C)on4)cn3c2=O)cc(Cl)c1O [Example 84, 2-[1-(3-Chloro-4-hydroxy-5-methoxy-phenyl)-meth-(Z)-ylidene]-6-(5-methyl-isoxazol-3-yl)-imidazo[2,1-b]thiazol-3-one]",18,990
"COc1cc(/C=c2\sc3nc(-c4cccc(C(=O)O)c4)cn3c2=O)cc(Cl)c1O [Example 104, 3-{2-[1-(3-Chloro-4-hydroxy-5-methoxy-phenyl)-meth-(Z)-ylidene]-3-oxo-2,3-dihydro-imidazo[2,1-b]thiazol-6-yl}-benzoic acid]",19,> 10000
"COc1cc(/C=c2\sc3nc(-c4ccnc(C)c4)cn3c2=O)ccc1O [Example 12, 2-[1-(4-Hydroxy-3-methoxy-phenyl)-meth-(Z)-ylidene]-6-(2-methyl-pyridin-4-yl)-imidazo[2,1-b]thiazol-3-one]",79,> 10000
"COc1cc(/C=c2\sc3nc(-c4cc(C)nc(C)c4)cn3c2=O)cc(F)c1O [Example 64, 2-[1-(3-Fluoro-4-hydroxy-5-methoxy-phenyl)-meth-(Z)-ylidene]-6-(2,6-dimethyl-pyridin-4-yl)-imidazo[2,1-b]thiazol-3-one]",32,406
"CCCOc1cc(/C=c2\sc3nc(-c4ccncc4)cn3c2=O)cc(Cl)c1O [Example 111, 2-[1-(3-Chloro-4-hydroxy-5-propoxy-phenyl)-meth-(Z)-ylidene]-6-pyridin-4-yl-imidazo[2,1-b]thiazol-3-one]",17,1450
"COc1ccc(-c2nc3s/c(=C\c4cc(Cl)c(O)c(OC)c4)c(=O)n3c2C)cc1 [Example 14, 2-[1-(3-Chloro-4-hydroxy-5-methoxy-phenyl)-meth-(Z)-ylidene]-6-(4-methoxy-phenyl)-5-methyl-imidazo[2,1-b]thiazol-3-one]",37,466
"COc1cc(/C=c2\sc3nc(-c4ccc(F)c(C(F)(F)F)c4)cn3c2=O)cc(Br)c1O [Example 46, 2-[1-(3-bromo-4-hydroxy-5-methoxy-phenyl)-meth-(Z)-ylidene]-6-(4-fluoro-3-(trifluoromethyl)-phenyl)-imidazo[2,1-b]thiazol-3-one]",28,5910
"COc1cc(/C=c2\sc3nc(-c4ccc5c(c4)CC(=O)N5)cn3c2=O)cc(Cl)c1O [Example 102, 5-{2-[1-(3-Chloro-4-hydroxy-5-methoxy-phenyl)-meth-(Z)-ylidene]-3-oxo-2,3-dihydro-imidazo[2,1-b]thiazol-6-yl}-1,3-dihydro-indol-2-one]",12,226
"COc1cc(/C=c2\sc3nc(-c4ccc(C(=O)O)cc4)cn3c2=O)cc(Cl)c1O [Example 98, 4-{2-[1-(3-Chloro-4-hydroxy-5-methoxy-phenyl)-meth-(Z)-ylidene]-3-oxo-2,3-dihydro-imidazo[2,1-b]thiazol-6-yl}-benzoic acid]",21,1850
COc1cc(/C=c2\sc3nc(-c4ccc(C(F)(F)F)c(F)c4)cn3c2=O)cc(OC)c1O [Example 29],11,43
"CCCOc1cc(/C=c2\sc3nc(-c4cccs4)cn3c2=O)cc(Cl)c1O [Example 132, 2-[1-(3-Chloro-4-hydroxy-5-propoxy-phenyl)-meth-(Z)-ylidene]-6-thiophen-2-yl-imidazo[2,1-b]thiazol-3-one]",41,718
"COc1cc(/C=c2\sc3nc(-c4cccc(C(F)(F)F)c4)cn3c2=O)cc(F)c1O [Example 41, 2-[1-(3-fluoro-4-hydroxy-5-methoxy-phenyl)-meth-(Z)-ylidene]-6-(3-(trifluoromethyl)-phenyl)-imidazo[2,1-b]thiazol-3-one]",16,1810
"CCCOc1cc(/C=c2\sc3nc(-c4cccnc4)cn3c2=O)cc(Cl)c1O [Example 110, 2-[1-(3-Chloro-4-hydroxy-5-propoxy-phenyl)-meth-(Z)-ylidene]-6-pyridin-3-yl-imidazo[2,1-b]thiazol-3-one]",17,425
"CCCOc1cc(/C=c2\sc3nc(-c4cnccc4C)cn3c2=O)cc(Cl)c1O [Example 109, 2-[1-(3-Chloro-4-hydroxy-5-propoxy-phenyl)-meth-(Z)-ylidene]-6-(4-methyl-pyridin-3-yl)-imidazo[2,1-b]thiazol-3-one]",33,4920
"COc1cc(/C=c2\sc3nc(-c4cccnc4)cn3c2=O)cc(F)c1O [Example 71, 2-[1-(3-Fluoro-4-hydroxy-5-methoxy-phenyl)-meth-(Z)-ylidene]-6-(pyridin-3-yl)-imidazo[2,1-b]thiazol-3-one]",20,238

# Stronger by IC50 [1], values ahead:
IC50 [1] [nM],IC50 [2] [nM],SMILES
10.4,700,"COc1cc(/C=c2\sc3nc(-c4cccnc4)cn3c2=O)cc(Cl)c1O [Example 78, 2-[1-(3-Chloro-4-hydroxy-5-methoxy-phenyl)-meth-(Z)-ylidene]-6-(pyridin-3-yl)-imidazo[2,1-b]thiazol-3-one]"
7,1020,"COc1cc(/C=c2\sc3nc(-c4cccc(C)c4)cn3c2=O)cc(Cl)c1O [Example 52, 2-[1-(3-Chloro-4-hydroxy-5-methoxy-phenyl)-meth-(Z)-ylidene]-6-m-tolyl-imidazo[2,1-b]thiazol-3-one]"
6,352,"CNC(=O)c1ccc(-c2cn3c(=O)/c(=C/c4cc(Cl)c(O)c(OC)c4)sc3n2)cc1 [Example 114, 4-{2-[1-(3-Chloro-4-hydroxy-5-methoxy-phenyl)-meth-(Z)-ylidene]-3-oxo-2,3-dihydro-imidazo[2,1-b]thiazol-6-yl}-N-methyl-benzamide]"
7,39,"COc1cc(/C=c2\sc3nc(-c4ccc(Cl)cc4)cn3c2=O)cc(C)c1O [Example 32, 6-(4-Chloro-phenyl)-2-[1-(4-hydroxy-3-methoxy-5-methyl-phenyl)-meth-(Z)-ylidene]-imidazo[2,1-b]thiazol-3-one]"
2,356,"CCCNC(=O)c1ccc(-c2cn3c(=O)/c(=C/c4cc(Cl)c(O)c(OC)c4)sc3n2)cc1 [Example 115, 4-{2-[1-(3-Chloro-4-hydroxy-5-methoxy-phenyl)-meth-(Z)-ylidene]-3-oxo-2,3-dihydro-imidazo[2,1-b]thiazol-6-yl}-N-propyl-benzamide]"
5,55,"COc1cc(/C=c2\sc3nc(-c4cccc(OCCF)c4)cn3c2=O)cc(Cl)c1O [Example 74, 2-[1-(3-Chloro-4-hydroxy-5-methoxy-phenyl)-meth-(Z)-ylidene]-6-(3-(2-fluoroethoxyl)phenyl)-imidazo[2,1-b]thiazol-3-one]"
6,24000,"COc1cc(/C=c2\sc3nc(-c4cccc(C#N)c4)cn3c2=O)cc(Cl)c1O [Example 44, 3-{2-[1-(3-Chloro-4-hydroxy-5-methoxy-phenyl)-meth-(Z)-ylidene]-3-oxo-2,3-dihydro-imidazo[2,1-b]thiazol-6-yl}-benzonitrile]"
2,133,"COc1cc(/C=c2\sc3nc(-c4ccc(C(=O)N5CC(F)C5)cc4)cn3c2=O)cc(Cl)c1O [Example 134, 2-[1-(3-Chloro-4-hydroxy-5-methoxy-phenyl)-meth-(Z)-ylidene]-6-[4-(3-fluoro-azetidine-1-carbonyl)-phenyl]-imidazo[2,1-b]thiazol-3-one]"
2,86,"COc1cc(/C=c2\sc3nc(-c4ccc(C(=O)NCCCF)cc4)cn3c2=O)cc(Cl)c1O (single isomer, unassigned) [Example 133]"
3,2630,"CCCNC(=O)c1cccc(-c2cn3c(=O)/c(=C/c4cc(Cl)c(O)c(OC)c4)sc3n2)c1 [Example 107, 3-{2-[1-(3-Chloro-4-hydroxy-5-methoxy-phenyl)-meth-(Z)-ylidene]-3-oxo-2,3-dihydro-imidazo[2,1-b]thiazol-6-yl}-N-propyl-benzamide]"
3,198,"COc1cc(/C=c2\sc3nc(-c4cccc(OC(F)(F)F)c4)cn3c2=O)cc(Cl)c1O [Example 22, 2-[1-(3-Chloro-4-hydroxy-5-methoxy-phenyl)-meth-(Z)-ylidene]-6-(3-trifluoromethoxy-phenyl)-imidazo[2,1-b]thiazol-3-one]"
2,32,"COc1cc(/C=c2\sc3nc(-c4ccc(Cl)cc4)cn3c2=O)cc(Cl)c1O [Example 6, 6-(4-Chloro-phenyl)-2-[1-(3-chloro-4-hydroxy-5-methoxy-phenyl)-meth-(Z)-ylidene]-imidazo[2,1-b]thiazol-3-one]"
4,38,"COc1cc(/C=c2\sc3nc(-c4ccc(C(=O)OCCF)cc4)cn3c2=O)cc(Cl)c1O [Example 148, 4-{2-[1-(3-Chloro-4-hydroxy-5-methoxy-phenyl)-meth-(Z)-ylidene]-3-oxo-2,3-dihydro-imidazo[2,1-b]thiazol-6-yl}-benzoic acid 2-fluoro-ethyl ester]"
8,1080,"COc1cc(/C=c2\sc3nc(-c4cccc(C(=O)NCCF)c4)cn3c2=O)cc(Cl)c1O [Example 106, 3-{2-[1-(3-Chloro-4-hydroxy-5-methoxy-phenyl)-meth-(Z)-ylidene]-3-oxo-2,3-dihydro-imidazo[2,1-b]thiazol-6-yl}-N-(2-fluoro-ethyl)-benzamide]"
7,332,COc1cc(/C=c2\sc3nc(-c4ccc(C(=O)N(C)CCCF)cc4)cn3c2=O)cc(Cl)c1O [Example 137]
9,218,"CCCN(C)C(=O)c1ccc(-c2cn3c(=O)/c(=C/c4cc(Cl)c(O)c(OC)c4)sc3n2)cc1 [Example 128, 4-{2-[1-(3-Chloro-4-hydroxy-5-methoxy-phenyl)-meth-(Z)-ylidene]-3-oxo-2,3-dihydro-imidazo[2,1-b]thiazol-6-yl}-N-methyl-N-propyl-benzamide]"
